From patent US20190055231A1, “BACE1 INHIBITORS” (Hoffmann-La Roche Inc., priority 2016, published 2019) come the findings set out here.

Like-named read-outs stand apart in the source and are kept apart here.

One may read the IC20 as the point of the concentration-response curve where the effect stands at 20%. What is called bioavailability is the share of a dose that reaches the circulation, judged against a reference dose that is usually intravenous. For orientation: clearance means the volume of plasma or blood freed of the substance per unit of time.

The subject of series [1] is Aβ40 in brain of wild-type mice. Briefly: Mouse acute in vivo model (inhibition of Aβ40 in brain of wild-type mice). The settings on record: 4 h post dose. As for the experimental part:
Mouse Acute In Vivo Model (Inhibition of Aβ40 in Brain of Wild-Type Mice)
Single Dose Efficacy in Mice
The mouse single dose efficacy was measured in brain homogenate from C57Bl/6J wildtype mice after DEA extraction as described in H. Hilpert et al., J. Med. Chem. 2013, 56, 3980-3995 (dx.doi.org/10.1021/jm400225m).
(§1) Aβ 40 concentration was determined after solid phase extraction as described above and following a modified protocol from Perkin-Elmer with a commercially available antibody against the N-terminal part of rat Aβ (252Q6, Invitrogen cat. No. AMB0062) and an in-house C-terminal specific anti-Aβ40 antibody (BAP-24, Brockhaus M. et al., J. Neuroreport, 1998, 9:1481-1486) bound to acceptor beads (PerkinElmer, Cat. 6772002). 20 μl analyte per well (reconstituted extracts or standard) were loaded to a White Optiplate-96 (Perkin-Elmer, Cat#6005290). Then, a mixture of biotinylated BAP24 antibody (1:2000 diluted at approximately 1 nM final concentration) and antibody 252Q6 bound to AlphaLISA acceptor beads (Perkin-Elmer cat. No. 6772002 (1:100 diluted, 10 ug/mL final concentration) in 1× AlphaLISA buffer (Perkin-Elmer, AL000F) was added. After 1 hour room temperature incubation in the dark, 20 uL of a streptavidin coated donor beads dilution (40 μg/mL) were added and incubated for 30 minutes in the dark. Light emission at 615 nm was recorded using an EnVision AlphaScreen Reader (Perkin-Elmer). Levels of Aβ40 were calculated as percentage of the baseline samples from non-treated animals.
Aβ40 lowering was determined after oral administration in wild-type mice (C57Bl/6J mice, n=3-4) 4 h post dosing. Wild-type mice were used as they have a normal physiological level of APP expression and are thus expected to provide a better physiological model for Aβ-peptide production than APP-transgenic organisms. In vivo efficacy is a key factor for appropriate drug candidates, being more relevant than in vitro activities.

The target in a further series is hERG channel (Homo sapiens, UniProt Q12809). Briefly: hERG IC20 assay. In kind it is cell-based. The text has this:
The methods to determine the hERG IC20 values was described in Industrializing electrophysiology: HT automated patch clamp on SyncroPatch® 96 using instant frozen cells. Polonchuk L., Methods Mol Biol. 2014; 1183:81-92. (doi: 10.1007/978-1-4939-1096-0_5.) PMID:25023303
QT prolongation is a cardiovascular risk caused by drug candidates which inhibit the hERG channel (human ether a go-go). A sufficient safety margin between the hERG IC20 value and the free plasma concentration necessary to achieve the envisaged thereapeutic effects is desired (ICH. The nonclinical evaluation of the potential for delayed ventricular repolarization (QT interval prolongation) by human pharmaceuticals (S7B), issued as CPMP/ICH/423/02, adopted by CHMP in May 2005 (http://www.ich.org/cache/compo/276-254-1.html; Redfern W S, Carlsson L, Davis A S, Lynch W G, MacKenzie I, Palethorpe S, Siegl P K, Strang I, Sullivan A T, Wallis R, Camm A J, Hammond T G. Relationships between preclinical cardiac electrophysiology, clinical QT interval prolongation and torsade de pointes for a broad range of drugs: evidence for a provisional safety margin in drug development. Cardiovasc Res. 2003 Apr. 1; 58(1):32-45.)). Reducing the activity against efflux transporters expressed at the blood-brain-barrier such as P-glycoprotein P-gp, might result in reduction of the free plasma concentration by optimizing brain penetration.

The next series addresses Human P-gp (Homo sapiens, UniProt P08183). Briefly: P-gp transport assay (human). It counts as in vitro ADME. To be noted: efflux ratio. The source says:
(§2) P-Gp Transport Assay (Human and Mouse) (P-Gp Assay)
(§3) In the assay of the P-gp efflux ratio ER as described hereinabove, a compound with ER<2.5 is regarded most suitable. In addition, compounds with low hERG channel binding are suitable as well.

In another series the target is Mouse P-gp (Mus musculus, UniProt P21447). Briefly: P-gp transport assay (mouse). It counts as in vitro ADME. To be noted: efflux ratio.
Excerpt: as §2, §3

Another series can be described thus: Rat single dose PK study. The settings on record: 1 mg/kg; for concentration at 4 h: oral. It counts as in vivo. As for the experimental part:
(§4) Rat Single Dose PK Study (Inhibition of CSF Aβ40 in Wistar Rats)
(§5) The rat single dose PK study was described in H. Hilpert et al., J. Med. Chem. 2013, 56, 3980-3995 (dx.doi.org/10.1021/jm400225m) with slight modifications.
(§6) Blood is transferred into a labeled EDTA-K2 Eppendorf tube and the sample is mixed by inverting the tubes several times. Blood is stored at −20° C.

The next series deals with CSF Aβ40. Briefly: Rat single dose study, inhibition of CSF Aβ40 in Wistar rats. In kind it is in vivo. The settings on record: rat CSF Aβ40, 1 mg/kg, 4 h post dose. As for the experimental part:
as §4, §5
as §1, with “determined without” for “determined after”, “extraction” for “extraction as described above and”, “20 μL” for “20 uL”, “of Aβ 40” for “of Aβ40”

Series [2] is described as follows: Cynomolgus monkey single dose PK study. It counts as in vivo, Cynomolgus monkey (Macacaca fascicularis).
Excerpt: Cynomolgus Monkey (Macacaca fascicularis) Single Dose PK Study and Plasma Aβ40 Determination
Blood and plasma collection will always be performed in the treatment cage. The animal care keeper grabs either one arm or one leg through the bars. The hairs are shaved for better visibility of the vein. The blood vessel is squeezed, the vein is punctured by using a butterfly and blood is taken. Once enough blood has been withdrawn a cotton swab is placed over the injection site and the needle is gently removed. Bleeding is stopped by pressing a cotton swab on the wound. Plasma samples were taken between 5 min and 48 h.
Plasma Preparation Cynomolgus
as §6

Chain of hERG channel (Q12809 whole entry): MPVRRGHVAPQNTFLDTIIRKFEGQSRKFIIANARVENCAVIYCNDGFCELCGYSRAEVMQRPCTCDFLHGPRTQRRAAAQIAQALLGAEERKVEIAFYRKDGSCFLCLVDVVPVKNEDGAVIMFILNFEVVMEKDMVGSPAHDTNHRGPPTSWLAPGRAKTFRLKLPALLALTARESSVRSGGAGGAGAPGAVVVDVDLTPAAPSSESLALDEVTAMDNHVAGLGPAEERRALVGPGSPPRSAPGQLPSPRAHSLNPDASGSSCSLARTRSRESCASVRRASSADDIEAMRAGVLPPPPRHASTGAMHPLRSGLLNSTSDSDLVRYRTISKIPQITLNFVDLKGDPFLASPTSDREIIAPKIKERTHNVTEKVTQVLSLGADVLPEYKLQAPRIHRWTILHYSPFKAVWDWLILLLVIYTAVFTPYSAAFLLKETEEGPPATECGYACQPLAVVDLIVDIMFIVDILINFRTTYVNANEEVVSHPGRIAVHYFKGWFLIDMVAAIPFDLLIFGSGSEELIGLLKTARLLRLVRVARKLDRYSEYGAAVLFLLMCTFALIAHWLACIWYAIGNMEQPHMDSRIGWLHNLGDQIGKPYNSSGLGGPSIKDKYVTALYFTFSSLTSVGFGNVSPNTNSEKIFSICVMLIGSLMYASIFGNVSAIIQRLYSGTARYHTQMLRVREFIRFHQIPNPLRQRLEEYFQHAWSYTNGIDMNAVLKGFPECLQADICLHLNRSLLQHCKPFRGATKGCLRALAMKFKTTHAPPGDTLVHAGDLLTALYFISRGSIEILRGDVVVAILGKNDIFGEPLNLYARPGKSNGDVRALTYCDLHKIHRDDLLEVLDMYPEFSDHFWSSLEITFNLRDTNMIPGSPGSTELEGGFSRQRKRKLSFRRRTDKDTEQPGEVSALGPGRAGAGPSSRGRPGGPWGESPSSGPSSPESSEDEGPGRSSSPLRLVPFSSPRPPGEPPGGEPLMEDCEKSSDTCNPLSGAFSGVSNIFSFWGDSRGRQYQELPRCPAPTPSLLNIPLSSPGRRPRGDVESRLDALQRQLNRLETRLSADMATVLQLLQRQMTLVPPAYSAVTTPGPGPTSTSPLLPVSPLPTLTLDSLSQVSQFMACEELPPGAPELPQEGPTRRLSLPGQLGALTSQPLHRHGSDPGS
Chain of Human P-gp (P08183 whole entry): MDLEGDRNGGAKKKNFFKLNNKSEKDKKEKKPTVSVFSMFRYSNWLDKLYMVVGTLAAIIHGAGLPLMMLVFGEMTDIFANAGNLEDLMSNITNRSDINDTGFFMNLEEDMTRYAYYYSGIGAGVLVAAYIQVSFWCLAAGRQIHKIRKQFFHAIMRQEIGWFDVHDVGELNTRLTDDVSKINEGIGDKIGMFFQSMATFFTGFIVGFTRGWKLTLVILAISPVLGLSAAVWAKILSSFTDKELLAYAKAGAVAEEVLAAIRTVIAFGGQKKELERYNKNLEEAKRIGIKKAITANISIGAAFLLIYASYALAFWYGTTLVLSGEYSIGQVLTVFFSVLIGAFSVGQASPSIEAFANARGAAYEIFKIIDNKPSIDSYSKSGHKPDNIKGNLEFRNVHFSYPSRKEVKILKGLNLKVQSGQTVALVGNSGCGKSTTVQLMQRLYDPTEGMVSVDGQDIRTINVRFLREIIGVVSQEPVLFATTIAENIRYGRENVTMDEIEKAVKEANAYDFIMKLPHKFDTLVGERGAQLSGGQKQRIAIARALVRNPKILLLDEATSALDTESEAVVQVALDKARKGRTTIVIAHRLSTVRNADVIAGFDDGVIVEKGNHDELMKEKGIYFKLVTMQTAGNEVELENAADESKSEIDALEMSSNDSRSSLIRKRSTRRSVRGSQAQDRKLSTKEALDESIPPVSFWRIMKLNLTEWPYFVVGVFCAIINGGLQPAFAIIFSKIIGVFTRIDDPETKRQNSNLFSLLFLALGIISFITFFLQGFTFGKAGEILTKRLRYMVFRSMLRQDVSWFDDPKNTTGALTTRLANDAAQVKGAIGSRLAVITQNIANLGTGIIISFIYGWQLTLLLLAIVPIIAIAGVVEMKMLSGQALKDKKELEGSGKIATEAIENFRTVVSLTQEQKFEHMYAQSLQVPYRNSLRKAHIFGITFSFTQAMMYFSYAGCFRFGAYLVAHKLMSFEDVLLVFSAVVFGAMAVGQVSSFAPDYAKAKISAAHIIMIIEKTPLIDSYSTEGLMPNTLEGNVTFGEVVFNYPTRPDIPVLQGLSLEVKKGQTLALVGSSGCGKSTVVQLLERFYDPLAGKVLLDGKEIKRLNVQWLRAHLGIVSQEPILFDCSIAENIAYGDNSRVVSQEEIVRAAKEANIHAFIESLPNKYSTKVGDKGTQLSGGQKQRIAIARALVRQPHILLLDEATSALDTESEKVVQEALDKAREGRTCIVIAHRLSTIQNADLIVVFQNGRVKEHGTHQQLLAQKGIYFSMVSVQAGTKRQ
Chain of Mouse P-gp (P21447 whole entry): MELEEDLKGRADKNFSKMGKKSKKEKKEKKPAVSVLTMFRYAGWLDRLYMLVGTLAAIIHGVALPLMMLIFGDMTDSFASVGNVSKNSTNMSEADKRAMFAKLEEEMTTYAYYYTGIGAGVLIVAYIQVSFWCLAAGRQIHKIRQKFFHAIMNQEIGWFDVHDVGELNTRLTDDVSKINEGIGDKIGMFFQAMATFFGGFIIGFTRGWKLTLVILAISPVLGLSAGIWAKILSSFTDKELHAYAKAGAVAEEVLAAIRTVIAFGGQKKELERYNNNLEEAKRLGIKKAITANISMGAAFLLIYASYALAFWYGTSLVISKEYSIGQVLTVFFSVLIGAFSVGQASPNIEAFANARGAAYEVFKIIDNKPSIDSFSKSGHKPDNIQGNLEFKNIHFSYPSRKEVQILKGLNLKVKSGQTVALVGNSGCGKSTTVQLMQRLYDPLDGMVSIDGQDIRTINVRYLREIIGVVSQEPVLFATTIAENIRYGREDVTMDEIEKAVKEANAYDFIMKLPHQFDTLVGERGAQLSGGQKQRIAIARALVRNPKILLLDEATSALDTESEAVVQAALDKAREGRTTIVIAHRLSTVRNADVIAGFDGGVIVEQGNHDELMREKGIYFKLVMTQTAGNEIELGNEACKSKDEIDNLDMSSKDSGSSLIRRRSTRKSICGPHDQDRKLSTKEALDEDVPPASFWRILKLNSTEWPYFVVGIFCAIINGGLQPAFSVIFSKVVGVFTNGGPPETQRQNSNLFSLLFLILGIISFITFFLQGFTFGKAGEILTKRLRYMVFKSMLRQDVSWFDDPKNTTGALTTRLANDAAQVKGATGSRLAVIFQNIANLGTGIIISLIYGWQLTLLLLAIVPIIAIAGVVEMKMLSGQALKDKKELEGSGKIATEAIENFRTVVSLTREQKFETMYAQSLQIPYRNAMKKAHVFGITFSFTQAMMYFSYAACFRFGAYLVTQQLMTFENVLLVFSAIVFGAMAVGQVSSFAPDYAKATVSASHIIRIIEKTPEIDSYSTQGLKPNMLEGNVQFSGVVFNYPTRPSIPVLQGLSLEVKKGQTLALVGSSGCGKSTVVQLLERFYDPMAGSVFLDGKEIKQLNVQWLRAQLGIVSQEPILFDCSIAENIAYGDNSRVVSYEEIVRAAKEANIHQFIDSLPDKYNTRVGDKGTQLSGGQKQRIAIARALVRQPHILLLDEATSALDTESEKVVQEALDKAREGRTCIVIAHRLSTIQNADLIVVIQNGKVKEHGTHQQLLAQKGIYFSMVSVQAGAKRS

For `C[C@]1(c2nc(NC(=O)c3ccc(C#N)cn3)ccc2F)N=C(N)O[C@H](C(F)(F)F)[C@@H]1F` [Comparator 6], the “Brain Aβ-lowering 3 mg/kg” value in series [1] (single p.o. dose 3 mg/kg) is given as 86%. In addition, the “Brain Aβ-lowering 10 mg/kg” value in series [1] (single p.o. dose 10 mg/kg) is 94%. In addition, on hERG channel, the “higher affinity to hERG than example 1” value amounted to 6 fold. On hERG channel (human, hERG IC20 assay), this compound returned an IC20 of 0.4 µM. Also, the “Human P-gp ER” value on Human P-gp is 1.1. Also, the “Mouse P-gp ER” value on Mouse P-gp is 2.4. In addition, in “Rat single dose PK study” (4 h, free unbound), the “Plasma concentration at 4 h, free” value is 36.3 nM. The “Plasma concentration at 4 h” value in “Rat single dose PK study” (4 h, total) came to 193 nM. Further, the concentration at 4 h worked out at 36.3 nM in the series “Rat single dose PK study” (Wistar, plasma, 4 h, free unbound, read-out: Plasma concentration at 4 h, free); 85 ng/mL in “Rat single dose PK study” (Wistar, plasma, 4 h, free, read-out: Plasma concentration at 4 h, free); 85 ng/mL in “Rat single dose PK study” (Wistar, plasma, 4 h, total, read-out: Plasma concentration at 4 h). Besides, the bioavailability in the series “Rat single dose PK study” (Wistar, plasma, po, read-out: Oral Bioavailability F) is 19%; in series [2] (plasma, po, read-out: Oral Bioavailability F), 63%. For the same compound, the “CSF Aβ-lowering 1 mg/kg at 4 h” value in the series on CSF Aβ40 is reported as 77%. In addition, the “lower exposure compared to example 1” value in series [2] turned out to be 5 fold. In series [2] (plasma), the clearance was determined as 9.7 mL/min/kg. Further, the half-life in series [2] (plasma, po, read-out: t1/2 p.o. (converted)) is 11 h.
